pIC50: −log10 of the molar value. Numbered stars: 1 amine (or outer) side, 2 acyl side, 3 side chain; on linkers, the order of the positions; unused ones are H or OH. Bridge positions count the residues as written; N and C are the ends. Square brackets hold non-standard residues; d marks the D form. Peptide text beside a SMILES is read from it. I, II: the chains in the order shown. 2Nal = N[C@@H](Cc1ccc2ccccc2c1)C(=O)O; Diglycolyl = O=C(COCC(=O)[*:2])[*:1]; NMeR = CN[C@@H](CCCNC(=N)N)C(=O)O; β3hE = N[C@@H](CCC(=O)O)CC(=O)O; Pen = CC(C)(S)[C@H](N)C(=O)O
Key:
[1] = Dithiothreitol (DTT) Redox Stability Assay; assay type: physicochemical; details: Table 4-C, t1/2, 0.5 mM DTT
Procedure: For each peptide tested, the DTT stability assay was conducted by adding 5 μl of a 10 mM peptide stock solution in DMSO to 1 ml of 100 mM Tris-Cl, pH 7.5 (final peptide concentration is 50 μM). At time 0 min, 5 ul of a freshly thawed 100 mM DTT solution was added to the incubation tube containing the peptide, such that the final DTT concentration was 0.5 mM. The reactions were incubated at room temperature. At different time points up to 120 minutes (20 min, 40 min, 80 min, 120 min), 50 ul aliquots were removed, and the reaction was quenched by adding 10 μl of 5M acetic acid. To measure disappearance of the parent peptide, the quenched samples (30 μl) were analyzed by reverse phase HPLC and UV absorbance at 220 nm. The fraction oxidized remaining was graphed versus time, and half-lives were calculated by fitting to a first-order exponential decay equation using Excel.

[2] = Simulated Intestinal Fluid (SIF) Stability Assay; assay type: in vitro ADME, porcine; details: pig, simulated intestinal fluid (SIF) with 1% porcine pancreatin, pH 6.5, Table 4-C, t1/2; > means assay stopped at that time; read-out: SIF (porcine) Min
Method in brief: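 Peptides (22 μM final) incubated at 37 °C in FASSIF (pH 6.5) with 1% porcine pancreatin; aliquots quenched at various times and analyzed by LC-MS/MS against internal standard. Half-life from first-order exponential decay fit of percent remaining.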

[3] = Simulated Gastric Fluid (SGF) Assay; assay type: in vitro ADME; details: pig, simulated gastric fluid (SGF) with porcine pepsin, pH 2; Table 4-C, t1/2
Procedure: SGF was prepared by adding 20 mg NaCl, 32 mg porcine pepsin (MP Biochemicals, catalog 02102599), and 70 μl HCl to 10 ml water (final pH=2). Aliquots of SGF (0.5 ml each) were pre-warmed at 37° C. For each peptide tested, to start the reaction, 1 μl of peptide stock solution (10 mM in DMSO) was added to 0.5 ml SGF and thoroughly mixed such that the final peptide concentration was 20 μM. The reactions were incubated at 37° C. with gentle shaking. At each time point (0, 15, 30, 60 min), 50 μl aliquots were removed and added to 200 ul acetonitrile containing 0.1% formic acid to quench the reaction. Samples were stored at 4° C. until the end of the experiment and centrifuged at 10,000 rpm for 5 minutes. Aliquots of the supernatant were removed, diluted 1:1 into distilled water containing internal standard, and analyzed by LCMS/MS. Percent remaining at each timepoint was calculated based on the peak area response ratio of test compound to internal standard. Time 0 was set to 100%, and all later timepoints were calculated relative to time 0. Half-lives were calculated by fitting to a first-order exponential decay equation using GraphPad.

α4β7 = α4β7 (Homo sapiens, UniProt P13612+P26010); experiment: PBMC Memory T Cell Adhesion Assay, adhesion to MAdCAM-1; assay type: cell-based; details: Table 4-B; read-out: Cell Adhesion PBMC IC50
Chain of α4β7 (P13612 34-1032): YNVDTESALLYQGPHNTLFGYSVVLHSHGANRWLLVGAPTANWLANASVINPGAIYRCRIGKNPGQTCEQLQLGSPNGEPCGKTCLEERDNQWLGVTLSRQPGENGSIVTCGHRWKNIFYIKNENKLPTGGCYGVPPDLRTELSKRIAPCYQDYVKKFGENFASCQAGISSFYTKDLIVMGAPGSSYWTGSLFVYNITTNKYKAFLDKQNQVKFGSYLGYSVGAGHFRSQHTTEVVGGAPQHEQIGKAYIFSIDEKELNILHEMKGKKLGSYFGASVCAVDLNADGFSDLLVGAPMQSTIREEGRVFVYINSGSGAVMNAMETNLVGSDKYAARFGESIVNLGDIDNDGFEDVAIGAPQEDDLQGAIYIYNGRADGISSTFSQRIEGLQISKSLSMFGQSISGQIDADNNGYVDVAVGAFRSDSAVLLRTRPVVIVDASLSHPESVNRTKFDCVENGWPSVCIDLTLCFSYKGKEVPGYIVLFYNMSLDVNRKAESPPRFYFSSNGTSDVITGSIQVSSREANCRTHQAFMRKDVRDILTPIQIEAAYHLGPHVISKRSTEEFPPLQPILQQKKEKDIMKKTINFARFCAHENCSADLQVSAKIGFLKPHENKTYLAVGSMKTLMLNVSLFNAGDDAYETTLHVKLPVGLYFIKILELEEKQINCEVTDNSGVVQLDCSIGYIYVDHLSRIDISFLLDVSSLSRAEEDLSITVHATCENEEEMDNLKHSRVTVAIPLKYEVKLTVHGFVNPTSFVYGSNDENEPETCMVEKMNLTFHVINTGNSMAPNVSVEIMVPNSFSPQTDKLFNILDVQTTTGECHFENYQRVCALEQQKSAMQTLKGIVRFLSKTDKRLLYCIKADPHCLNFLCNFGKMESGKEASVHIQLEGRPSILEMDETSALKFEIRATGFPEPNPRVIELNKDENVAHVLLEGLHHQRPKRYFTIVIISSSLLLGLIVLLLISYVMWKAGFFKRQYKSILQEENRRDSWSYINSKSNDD
Chain of α4β7 (P26010 20-798): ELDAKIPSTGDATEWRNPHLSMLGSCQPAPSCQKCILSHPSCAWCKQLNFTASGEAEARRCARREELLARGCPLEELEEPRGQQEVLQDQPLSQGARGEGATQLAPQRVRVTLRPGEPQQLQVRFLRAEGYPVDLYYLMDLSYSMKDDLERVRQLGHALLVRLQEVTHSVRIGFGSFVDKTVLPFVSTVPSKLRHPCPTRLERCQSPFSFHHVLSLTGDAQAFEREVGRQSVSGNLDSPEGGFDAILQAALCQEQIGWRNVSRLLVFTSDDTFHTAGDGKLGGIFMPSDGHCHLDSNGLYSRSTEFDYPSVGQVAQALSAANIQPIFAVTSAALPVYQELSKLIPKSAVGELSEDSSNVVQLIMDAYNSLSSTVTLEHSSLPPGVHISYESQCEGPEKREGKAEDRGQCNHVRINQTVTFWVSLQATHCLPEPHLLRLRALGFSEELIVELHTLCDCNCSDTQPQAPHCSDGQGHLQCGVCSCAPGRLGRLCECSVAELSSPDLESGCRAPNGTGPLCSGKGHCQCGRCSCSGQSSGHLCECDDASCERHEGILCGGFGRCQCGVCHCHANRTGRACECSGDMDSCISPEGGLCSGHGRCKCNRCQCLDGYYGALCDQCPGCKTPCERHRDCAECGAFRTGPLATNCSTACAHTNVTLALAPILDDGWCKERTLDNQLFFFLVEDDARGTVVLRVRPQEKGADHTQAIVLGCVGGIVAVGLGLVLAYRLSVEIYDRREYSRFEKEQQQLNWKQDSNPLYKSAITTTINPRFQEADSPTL
Method in brief: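 Fresh human CD4+/CD45RO+ memory T cells in binding medium with 1 mM MnCl2 were preincubated with compound for 1.5 h at 37° C. on plates coated with Fc-captured MAdCAM-1 (400 ng/well). Adherent cells were read by fluorescence (Ex 485/Em 530). IC50 came from four-parameter nonlinear regression of RFU versus log concentration.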

## CC(=O)N[C@@H]1C(=O)N(C)[C@@H](CCCNC(=N)N)C(=O)N[C@@H](CO)C(=O)N[C@@H](CC(=O)O)C(=O)N[C@@H]([C@@H](C)O)C(=O)N[C@@H](CC(C)C)C(=O)N[C@H](C(=O)N[C@@H](Cc2c[nH]c3ccccc23)C(=O)N[C@@H](CCC(=O)O)C(=O)N[C@H](CCCCNC(=O)COCC(=O)NCCCC[C@@H](NC(=O)[C@H](CCC(=O)O)NC(=O)[C@H](Cc2c[nH]c3ccccc23)NC(=O)[C@H]2NC(=O)[C@H](CC(C)C)NC(=O)[C@H]([C@@H](C)O)NC(=O)[C@H](CC(=O)O)NC(=O)[C@H](CO)NC(=O)[C@H](CCCNC(=N)N)N(C)C(=O)[C@@H](NC(C)=O)C(C)(C)SSC2(C)C)C(N)=O)C(N)=O)C(C)(C)SSC1(C)C [compound 217, (Ac-Pen-N-Me-R-S-D-T-L-Pen-W-E-k-NH2)2-DIG] (I: Ac-[Pen][NMeR]SDTL[Pen]WE[dK]-NH2 / II: Ac-[Pen][NMeR]SDTL[Pen]WE[dK]-NH2; disulfide I:1-I:7, II:1-II:7 (inferred); linker I:10-II:10 via Diglycolyl (inferred))
[1]
  DTT Min: >120 min
[2]
  half-life at 22 μM: 2.02 h
[3]
  half-life at 20 μM: > 6 h

## CC(=O)N[C@@H]1C(=O)N(C)[C@@H](CCCNC(=N)N)C(=O)N[C@@H](CO)C(=O)N[C@@H](CC(=O)O)C(=O)N[C@@H]([C@@H](C)O)C(=O)N[C@@H](CC(C)C)C(=O)N[C@H](C(=O)N[C@@H](Cc2ccc3ccccc3c2)C(=O)N[C@@H](CCC(=O)O)C(=O)N[C@H](CCCCNC(=O)COCC(=O)NCCCC[C@@H](NC(=O)[C@H](CCC(=O)O)NC(=O)[C@H](Cc2ccc3ccccc3c2)NC(=O)[C@H]2NC(=O)[C@H](CC(C)C)NC(=O)[C@H]([C@@H](C)O)NC(=O)[C@H](CC(=O)O)NC(=O)[C@H](CO)NC(=O)[C@H](CCCNC(=N)N)N(C)C(=O)[C@@H](NC(C)=O)C(C)(C)SSC2(C)C)C(N)=O)C(N)=O)C(C)(C)SSC1(C)C [compound 212, (Ac-Pen-N-Me-R-S-D-T-L-Pen-2-Nal-E-k-NH2)2-DIG] (I: Ac-[Pen][NMeR]SDTL[Pen][2Nal]E[dK]-NH2 / II: Ac-[Pen][NMeR]SDTL[Pen][2Nal]E[dK]-NH2; disulfide I:1-I:7, II:1-II:7 (inferred); linker I:10-II:10 via Diglycolyl (inferred))
[1]
  DTT Min: >120 min
[2]
  half-life at 22 μM: 1.5 h
[3]
  half-life at 20 μM: 0.65 h

## CC(=O)N[C@@H]1C(=O)N(C)[C@@H](CCCNC(=N)N)C(=O)N[C@@H](CO)C(=O)N[C@@H](CC(=O)O)C(=O)N[C@@H]([C@@H](C)O)C(=O)N[C@@H](CC(C)C)C(=O)N[C@H](C(=O)N[C@@H](Cc2c[nH]c3ccccc23)C(=O)N[C@H](CCC(=O)O)C(=O)N[C@H](CCCCNC(=O)COCC(=O)NCCCC[C@@H](NC(=O)[C@@H](CCC(=O)O)NC(=O)[C@H](Cc2c[nH]c3ccccc23)NC(=O)[C@H]2NC(=O)[C@H](CC(C)C)NC(=O)[C@H]([C@@H](C)O)NC(=O)[C@H](CC(=O)O)NC(=O)[C@H](CO)NC(=O)[C@H](CCCNC(=N)N)N(C)C(=O)[C@@H](NC(C)=O)C(C)(C)SSC2(C)C)C(=O)O)C(=O)O)C(C)(C)SSC1(C)C [compound 216, (Ac-Pen-N-Me-R-S-D-T-L-Pen-W-e-k-OH)2-DIG] (I: Ac-[Pen][NMeR]SDTL[Pen]W[dE][dK]-OH / II: Ac-[Pen][NMeR]SDTL[Pen]W[dE][dK]-OH; disulfide I:1-I:7, II:1-II:7 (inferred); linker I:10-II:10 via Diglycolyl (inferred))
[2]
  half-life at 22 μM: > 3 h
[3]
  half-life at 20 μM: > 6 h
α4β7
  pIC50: 7.84

## CC(=O)N[C@@H]1C(=O)N(C)[C@@H](CCCNC(=N)N)C(=O)N[C@@H](CO)C(=O)N[C@@H](CC(=O)O)C(=O)N[C@@H]([C@@H](C)O)C(=O)N[C@@H](CC(C)C)C(=O)N[C@H](C(=O)N[C@@H](Cc2c[nH]c3ccccc23)C(=O)N[C@@H](CCC(=O)O)CC(=O)N[C@H](CCCCNC(=O)COCC(=O)NCCCC[C@@H](NC(=O)C[C@H](CCC(=O)O)NC(=O)[C@H](Cc2c[nH]c3ccccc23)NC(=O)[C@H]2NC(=O)[C@H](CC(C)C)NC(=O)[C@H]([C@@H](C)O)NC(=O)[C@H](CC(=O)O)NC(=O)[C@H](CO)NC(=O)[C@H](CCCNC(=N)N)N(C)C(=O)[C@@H](NC(C)=O)C(C)(C)SSC2(C)C)C(N)=O)C(N)=O)C(C)(C)SSC1(C)C [compound 213, [Ac-Pen-(N-Me-Arg)-Ser-Asp-Thr-Leu-Pen-Trp-(β-homoGlu)-(D-Lys)-NH2]2-DIG] (I: Ac-[Pen][NMeR]SDTL[Pen]W[β3hE][dK]-NH2 / II: Ac-[Pen][NMeR]SDTL[Pen]W[β3hE][dK]-NH2; disulfide I:1-I:7, II:1-II:7; linker I:10-II:10 via Diglycolyl)
[2]
  half-life at 22 μM: > 3 h
[3]
  half-life at 20 μM: > 3 h

## CC(=O)N[C@H]1CSSC[C@@H](C(=O)NCC(=O)N[C@@H](CCC(=O)O)C(=O)N[C@@H](CCCCNC(=O)COCC(=O)NCCCC[C@H](NC(=O)[C@H](CCC(=O)O)NC(=O)CNC(=O)[C@@H]2CSSC[C@H](NC(C)=O)C(=O)N(C)[C@@H](CCCNC(=N)N)C(=O)N[C@@H](CO)C(=O)N[C@@H](CC(=O)O)C(=O)N[C@@H]([C@@H](C)O)C(=O)N[C@@H](CC(C)C)C(=O)N2)C(=O)O)C(=O)O)NC(=O)[C@H](CC(C)C)NC(=O)[C@H]([C@@H](C)O)NC(=O)[C@H](CC(=O)O)NC(=O)[C@H](CO)NC(=O)[C@H](CCCNC(=N)N)N(C)C1=O [compound 201, (Ac-C-N-Me-R-S-D-T-L-C-G-E-K-OH)2-DIG] (I: Ac-C[NMeR]SDTLCGEK-OH / II: Ac-C[NMeR]SDTLCGEK-OH; disulfide I:1-I:7, II:1-II:7 (inferred); linker I:10-II:10 via Diglycolyl (inferred))
[2]
  half-life at 22 μM: 0.3 h
[3]
  half-life at 20 μM: > 6 h

## CC(=O)N[C@@H]1C(=O)N(C)[C@@H](CCCNC(=N)N)C(=O)N[C@@H](CO)C(=O)N[C@@H](CC(=O)O)C(=O)N[C@@H]([C@@H](C)O)C(=O)N[C@@H](CC(C)C)C(=O)N[C@H](C(=O)N[C@@H](Cc2c[nH]c3ccccc23)C(=O)N[C@H](CCC(=O)O)C(=O)N[C@H](CCCCNC(=O)COCC(=O)NCCCC[C@@H](NC(=O)[C@@H](CCC(=O)O)NC(=O)[C@H](Cc2c[nH]c3ccccc23)NC(=O)[C@H]2NC(=O)[C@H](CC(C)C)NC(=O)[C@H]([C@@H](C)O)NC(=O)[C@H](CC(=O)O)NC(=O)[C@H](CO)NC(=O)[C@H](CCCNC(=N)N)N(C)C(=O)[C@@H](NC(C)=O)C(C)(C)SSC2(C)C)C(N)=O)C(N)=O)C(C)(C)SSC1(C)C [compound 211, (Ac-Pen-N-Me-R-S-D-T-L-Pen-W-e-k-NH2)2-DIG] (I: Ac-[Pen][NMeR]SDTL[Pen]W[dE][dK]-NH2 / II: Ac-[Pen][NMeR]SDTL[Pen]W[dE][dK]-NH2; disulfide I:1-I:7, II:1-II:7 (inferred); linker I:10-II:10 via Diglycolyl (inferred))
[1]
  DTT Min: >120 min
[2]
  half-life at 22 μM: > 5 h
[3]
  half-life at 20 μM: > 1 h

## CC(=O)N[C@@H]1C(=O)N(C)[C@@H](CCCNC(=N)N)C(=O)N[C@@H](CO)C(=O)N[C@@H](CC(=O)O)C(=O)N[C@@H]([C@@H](C)O)C(=O)N[C@@H](CC(C)C)C(=O)N[C@H](C(=O)N[C@@H](Cc2c[nH]c3ccccc23)C(=O)N[C@H](CCCCN)C(N)=O)C(C)(C)SSC1(C)C [compound 208, Ac-Pen-N-Me-R-S-D-T-L-Pen-W-k-NH2] (Ac-[Pen][NMeR]SDTL[Pen]W[dK]-NH2; disulfide 1-7)
[1]
  DTT Min: >120 min
[2]
  half-life at 22 μM: > 6 h
[3]
  half-life at 20 μM: > 6 h

## CC(=O)N[C@@H]1C(=O)N[C@@H](CCCNC(=N)N)C(=O)N[C@@H](CO)C(=O)N[C@@H](CC(=O)O)C(=O)N[C@@H]([C@@H](C)O)C(=O)N[C@@H](CC(C)C)C(=O)N[C@H](C(=O)N[C@H](CCCCNC(=O)COCC(=O)NCCCC[C@@H](NC(=O)[C@@H]2CSSC(C)(C)[C@H](NC(C)=O)C(=O)N[C@@H](CCCNC(=N)N)C(=O)N[C@@H](CO)C(=O)N[C@@H](CC(=O)O)C(=O)N[C@@H]([C@@H](C)O)C(=O)N[C@@H](CC(C)C)C(=O)N2)C(N)=O)C(N)=O)CSSC1(C)C [compound 207, (Ac-Pen-R-S-D-T-L-C-k-NH2)2-DIG] (I: Ac-[Pen]RSDTLC[dK]-NH2 / II: Ac-[Pen]RSDTLC[dK]-NH2; disulfide I:1-I:7, II:1-II:7 (inferred); linker I:8-II:8 via Diglycolyl (inferred))
[1]
  DTT Min: 35 min
[2]
  half-life at 22 μM: < 0.333 h
[3]
  half-life at 20 μM: > 1 h
